Reference: patent US10537571B2, “Pyrimidine FGFR4 inhibitors” (priority 2013, dated 2020)
Like-named read-outs stand apart in the source and are kept apart here.

System: HEP3B tumor xenografts
Format: in vivo
Conditions: for comparative tumor growth efficacy: Hep3B

Structure (SMILES)	tolerability (health of animals) (30 mg/kg orally twice daily)	tolerability (health of animals) (60 mg/kg orally twice daily, dosing terminated on Day 11)	comparative tumor growth efficacy (60 mg/kg orally twice daily)	comparative tumor growth efficacy (25, 37.5 or 50 mg/kg i.p. twice daily)
CCN1CCN(c2ccc(Nc3cc(N(C)C(=O)Nc4c(Cl)c(OC)cc(OC)c4Cl)ncn3)cc2)CC1 [BGJ398]	did not exhibit poor health	poor health of animals	efficacy comparable to compound 108	–
C=CC(=O)Nc1cc(N2CCN(CC)CC2)ccc1Nc1cc(N(C)C(=O)Nc2c(Cl)c(OC)cc(OC)c2Cl)ncn1 [Compound 108, N-(2-(6-(3-(2,6-Dichloro-3,5-dimethoxyphenyl)-1-methylureido)pyrimidin-4-ylamino)-5-(4-ethylpiperazin-1-yl)-phenyl)acrylamide]	–	–	–	more efficacious than BGJ398
